Measured values reported in US10092575B2, “Substituted thiophene- and furan-fused azolopyrimidine-5-(6H)-one compounds” (DART NEUROSCIENCE (CAYMAN) LTD., priority 2012, dated 2018).

molecular target: human PDE1b enzyme (Homo sapiens (Human), UniProt Q01064); assay: PDE1b inhibitory assay (IMAP TR-FRET); settings: not given

Compound	EC50 [µM]
COc1ccc(Cn2c(=O)n3ncnc3c3c(C)csc32)cc1 [Example 28, 6-(4-Methoxybenzyl)-9-methylthieno[3,2-e][1,2,4]triazolo[1,5-c]pyrimidin-5(6H)-one]	0.1 to 1
CC1(C)Cc2c(sc3c2c2ncnn2c(=O)n3Cc2ccc(Cl)cc2)CO1 [Example 83, 6-(4-Chlorobenzyl)-10,10-dimethyl-6,8,10,11-tetrahydro-5H-pyrano[4′,3′:4,5]thieno[3,2-e][1,2,4]triazolo[1,5-c]pyrimidin-5-one]	0.1 to 1
O=c1n(Cc2ccccc2)c2sccc2c2ncnn12 [Example 24, 6-Benzylthieno[3,2-e][1,2,4]triazolo[1,5-c]pyrimidin-5(6H)-one]	1 to 10
CCOc1ccc(Cn2c(=O)n3ncnc3c3c4c(sc32)COCC4)cc1 [Example 97, 6-(4-Ethoxybenzyl)-6,8,10,11-tetrahydro-5H-pyrano[4′,3′:4,5]thieno[3,2-e][1,2,4]triazolo[1,5-c]pyrimidin-5-one]	1 to 10
COc1ccc(Cn2c(=O)n3ncnc3c3cc(CNCC4(C)COC4)sc32)cc1 [Example 211]	0.1 to 1
O=c1n(Cc2ccc(Cl)cc2F)c2sc3c(c2c2ncnn12)CCOC3 [Example 94, 6-(4-Chloro-2-fluorobenzyl)-6,8,10,11-tetrahydro-5H-pyrano[4′,3′:4,5]thieno[3,2-e][1,2,4]triazolo[1,5-c]pyrimidin-5-one]	0.1 to 1

same assay, conditions: negative log of half-maximal molar inhibitory concentration; 200 nM FAM-cAMP; reported as ranges

Compound	PDE1b (pEC50)
COc1ccc(Cn2c(=O)n3ncnc3c3c4c(sc32)CN(C(=O)C2CCOC2)CC4)c(F)c1 (stereo not drawn) [Example 167, 6-(2-Fluoro-4-methoxybenzyl)-9-(tetrahydrofuran-3-carbonyl)-8,9,10,11-tetrahydropyrido[4′,3′:4,5]thieno[3,2-e][1,2,4]triazolo[1,5-c]pyrimidin-5(6H)-one]	>7
COc1ccc(Cn2c(=O)n3ncnc3c3cc(CN4C[C@@H](C)O[C@@H](C)C4)sc32)cc1F [Example 201, 8-(((2R,6S)-2,6-Dimethylmorpholino)methyl)-6-(3-fluoro-4-methoxybenzyl)thieno[3,2-e][1,2,4]triazolo[1,5-c]pyrimidin-5(6H)-one]	>7
COc1ccc(Cn2c(=O)n3ncnc3c3c4c(sc32)CN(Cc2ccncc2)CC4)cc1 [Example 121, 6-(4-Methoxybenzyl)-9-(pyridin-4-ylmethyl)-8,9,10,11-tetrahydropyrido[4′,3′:4,5]thieno[3,2-e][1,2,4]triazolo[1,5-c]pyrimidin-5(6H)-one]	>7
CCN1CCN(Cc2cc3c(s2)n(Cc2ccc(OC)cc2)c(=O)n2ncnc32)CC1=O [Example 34, 8-((4-Ethyl-3-oxopiperazin-1-yl)methyl)-6-(4-methoxybenzyl)thieno[3,2-e][1,2,4]triazolo[1,5-c]pyrimidin-5(6H)-one]	>7
C[C@@H]1CN(Cc2cc3c(s2)n(Cc2ccc(F)c(Cl)c2)c(=O)n2ncnc32)C[C@H](C)O1 [Example 205, 6-(3-Chloro-4-fluorobenzyl)-8-(((2R,6S)-2,6-dimethylmorpholino)methyl)thieno[3,2-e][1,2,4]triazolo[1,5-c]pyrimidin-5(6H)-one]	>7
COc1ccc(Cn2c(=O)n3ncnc3c3c4c(sc32)CN(c2ccccn2)CC4)cc1 [Example 179, 6-(4-Methoxybenzyl)-9-(pyridin-2-yl)-8,9,10,11-tetrahydropyrido[4′,3′:4,5]thieno[3,2-e][1,2,4]triazolo[1,5-c]pyrimidin-5(6H)-one]	>7
Cc1csc2c1c1ncnn1c(=O)n2Cc1ccc(-c2ccccc2)cc1 [Example 7, 6-([1,1′-Biphenyl]-4-ylmethyl)-9-methylthieno[3,2-e][1,2,4]triazolo[1,5-c]pyrimidin-5(6H)-one]	<5
COc1ccc(Cn2c(=O)n3ncnc3c3c(C)c(CN4CCN(C)C(C)C4)sc32)cc1 (stereo not drawn) [Example 73, 8-((3,4-Dimethylpiperazin-1-yl)methyl)-6-(4-methoxybenzyl)-9-methylthieno[3,2-e][1,2,4]triazolo[1,5-c]pyrimidin-5(6H)-one]	>7
COc1ccc(Cn2c(=O)n3ncnc3c3c4c(sc32)CN(CCCSC)CC4)cc1 [Example 112, 6-(4-Methoxybenzyl)-9-(3-(methylthio)propyl)-8,9,10,11-tetrahydropyrido[4′,3′:4,5]thieno[3,2-e][1,2,4]triazolo[1,5-c]pyrimidin-5(6H)-one]	>7
COc1ccc(Cn2c(=O)n3ncnc3c3c4c(sc32)CN(Cc2ccncn2)CC4)cc1 [Example 119, 6-(4-Methoxybenzyl)-9-(pyrimidin-4-ylmethyl)-8,9,10,11-tetrahydropyrido[4′,3′:4,5]thieno[3,2-e][1,2,4]triazolo[1,5-c]pyrimidin-5(6H)-one]	>7
COc1ccc(Cn2c(=O)n3ncnc3c3c(C)c(CN(C)C)sc32)cc1 [Example 45, 8-((Dimethylamino)methyl)-6-(4-methoxybenzyl)-9-methylthieno[3,2-e][1,2,4]triazolo[1,5-c]pyrimidin-5(6H)-one]	>7
COc1ccc(Cn2c(=O)n3ncnc3c3c4c(sc32)CCN(CC2CCOCC2)C4)cc1 [Example 216, 6-(4-Methoxybenzyl)-10-((tetrahydro-2H-pyran-4-yl)methyl)-8,9,10,11-tetrahydropyrido[3′,4′:4,5]thieno[3,2-e][1,2,4]triazolo[1,5-c]pyrimidin-5(6H)-one]	<5
COc1ccc(Cn2c(=O)n3ncnc3c3cc(CN4CCC5(CC4)COC5)sc32)cc1 [Example 39, 8-(2-Oxa-7-azaspiro[3.5]nonan-7-ylmethyl)-6-(4-methoxybenzyl)thieno[3,2-e][1,2,4]triazolo[1,5-c]pyrimidin-5(6H)-one]	>7
COc1ccc(Cn2c(=O)n3ncnc3c3c(C)c(CN(C)C4CC4)sc32)cc1 [Example 46, 8-((Cyclopropyl(methyl)amino)methyl)-6-(4-methoxybenzyl)-9-methylthieno[3,2-e][1,2,4]triazolo[1,5-c]pyrimidin-5(6H)-one]	>7
COc1ccc(Cn2c(=O)n3ncnc3c3c(C)c(CN4CCN(C)C(C)(C)C4)sc32)cc1 [Example 74, 6-(4-Methoxybenzyl)-9-methyl-8-((3,3,4-trimethylpiperazin-1-yl)methyl)thieno[3,2-e][1,2,4]triazolo[1,5-c]pyrimidin-5(6H)-one]	>7
COc1ccc(Cn2c(=O)n3ncnc3c3c(C)c(CN4CCOC(C)C4)sc32)cc1 (stereo not drawn) [Example 70, 6-(4-Methoxybenzyl)-9-methyl-8-((2-methylmorpholino)methyl)thieno[3,2-e][1,2,4]triazolo[1,5-c]pyrimidin-5(6H)-one]	>7
COc1ccc(Cn2c(=O)n3ncnc3c3c4c(sc32)CN(Cc2ccccn2)CC4)c(F)c1 [Example 139, 6-(2-Fluoro-4-methoxybenzyl)-9-(pyridin-2-ylmethyl)-8,9,10,11-tetrahydropyrido[4′,3′:4,5]thieno[3,2-e][1,2,4]triazolo[1,5-c]pyrimidin-5 (6H)-one]	>7
COc1ccc(Cn2c(=O)n3ncnc3c3c4c(sc32)CN(CC2CCCCO2)CC4)cc1 (stereo not drawn) [Example 117, 6-(4-Methoxybenzyl)-9-((tetrahydro-2H-pyran-2-yl)methyl)-8,9,10,11-tetrahydropyrido[4′,3′:4,5]thieno[3,2-e][1,2,4]triazolo[1,5-c]pyrimidin-5(6H)-one]	>7
